What was measured:
Syk = molecular target: T1, Syk (Homo sapiens, UniProt P43405); experiment: In vitro kinase activity (Millipore KinaseProfiler): Syk; type: biochemical; conditions: no head or unit printed
T1 construct: purchased Millipore (KinaseProfiler service)
Protocol: (§1) All cells were grown in DMEM+10% FCS. ACHN and ACHN shVHL were a kind gift from George V. Thomas (UCLA). HIF overexpressing clones were described previously. Transfection of RNA oligos were performed with DnarmaFECT Reagent 1 (Dharmcon), according to manufacturer's directions. ON-TARGETplus SMART pools against HIF-1β/ARNT were purchased from Dharmacon. Glut1 was detected with anti-GLUT1 antibody from NeoMarkers/LabVision/Fisher. Pyruvate/lactate levels and hexokinase activity were both measured by fluorometric assay (BioVision and Sigma-Aldrich, respectively). ATP levels were measured by bioluminescence assay (ATP Determination Kit from Molecular Probes/Invitrogen). In vitro kinase activities were performed by Millipore KinaseProfiler. Affi-Gel 10 (BioRad) activated affinity media was coupled to analogs to generate immobilized affinity linkers.
(§2) We next wanted to investigate the differential glucose uptake between RCCs with and without VHL treated with compound 47 that subsequently lead to the selective death of VHL-deficient cells. We first examined the message levels of the two main glucose transporters, GLUT1 and GLUT2 by quantitative real-time PCR. GLUT1 is an inducible, high-affinity glucose transporter, while GLUT2 is the glucose transporter responsible for basal glucose uptake. […] Cells deficient in VHL had very low levels of GLUT2 that could barely be detected (FIG. 3J). […]

p53 = experiment: DNA damage response (Western blot p53, phospho-p53); type: cell-based, human; conditions: RCC4 and RCC4/VHL, 1.25, 2.5 and 5 μM
Protocol: (§3) (A) Clonogenic survival of RCC4 and RCC4/VHL treated with […] (5 μM)(*p<0.05). All error bars represent the standard error of the mean. […] RCC4 and RCC4/VHL cells were treated with increasing concentrations of compound 47 (1.25, 2.5 and 5 μM), a negative control (DMSO) and a positive control (4-(pyridin-4-yl)-N-(m-tolyl)thiazol-2-amine). Cells were lysed and probed for LC3, a marker of autophagy, or α-tubulin (loading control). […] RCC4 and RCC4/VHL cells were treated with vehicle, increasing concentrations of compound 47, and camptothecin. Cells were stained with DAPI and nuclear condensation was examined by fluorescence microscopy. (D) RCC4 cells were treated with compound 47 (5 μM) for the indicated time and stained with Annexin V and propidium iodide and subjected to FACS analysis. […] RCC4 and RCC4/VHL cells were subjected to increasing concentrations of compound 47 (1.25, 2.5, and 5 μM), a negative control (DMSO), and a positive control (doxorubicin). Cells were lysed and subjected to Western blot with the indicated antibodies.
(§4) However, RCC cells without VHL undergo a necrotic cell death in response to compound 47 as measured by the ability of the cells to exclude trypan blue, an indicator of cell membrane integrity.

Hck = molecular target: T2, Hck (Homo sapiens, UniProt P08631); experiment: In vitro kinase activity (Millipore KinaseProfiler): Hck; type: biochemical; conditions: no head or unit printed
T2 construct: purchased Millipore (KinaseProfiler service)
Protocol: as §1, §2

Fyn = molecular target: T3, Fyn (Homo sapiens, UniProt P06241); experiment: In vitro kinase activity (Millipore KinaseProfiler): Fyn; type: biochemical; conditions: no head or unit printed
T3 construct: purchased Millipore (KinaseProfiler service)
Protocol: as §1, §2

PDK1 = molecular target: T4, PDK1 (Homo sapiens, UniProt O15530); experiment: In vitro kinase activity (Millipore KinaseProfiler): PDK1; type: biochemical; conditions: no head or unit printed
T4 construct: purchased Millipore (KinaseProfiler service)
Protocol: as §1, §2

DAPK1 = molecular target: T5, DAPK1 (Homo sapiens, UniProt P53355); experiment: In vitro kinase activity (Millipore KinaseProfiler): DAPK1; type: biochemical; conditions: no head or unit printed
T5 construct: purchased Millipore (KinaseProfiler service)
Protocol: as §1, §2

CK1γ1 = molecular target: T6, CK1γ1 (Homo sapiens, UniProt Q9HCP0); experiment: In vitro kinase activity (Millipore KinaseProfiler): CK1γ1; type: biochemical; conditions: no head or unit printed
T6 construct: purchased Millipore (KinaseProfiler service)
Protocol: as §1, §2

RCC4 and RCC4/VHL cells = experiment: Apoptosis (DAPI nuclear condensation, Annexin V / propidium iodide FACS); type: cell-based, human
Protocol: as §3, §4

ACHN shVHL = experiment: Clonogenic survival, ACHN with shRNA to VHL; type: cell-based, human; conditions: FIG. 2E
LC3 = experiment: Autophagy markers (vacuoles, LC3 processing); type: cell-based, human; conditions: RCC4 and RCC4/VHL, 1.25, 2.5 and 5 μM
Protocol: as §3, §4

RCC4 = experiment: 3H-2-deoxyglucose uptake, RCC4; type: cell-based, human
Protocol: One hundred thousand cells were plated into 6-well plates. The following day, the cells were treated with vehicle or drug and incubated for the indicated time. Cells were washed twice in phosphate buffered saline and low glucose media was added for 30 minutes. Cells were then incubated with 0.5 microCi of tritiated-2-deoxyglucose and incubated for an hour at 37° C. Cells were washed twice in PBS and then lysed in 0.2 N NaOH and 0.2% SDS. Lysates were transferred to scintillation tubes with scintillation fluid and quantified by scintillation counter.
One hundred thousand cells were plated per well in a six-well plate. The next day, cells were treated with the indicated concentration of drug and incubated for the indicated time. Cells were then washed twice with phosphate-buffered saline, incubated in low-glucose medium for 30 minutes, and ^3H-2-deoxyglucose (0.5 μCi) was added in 1 ml of glucose-free media for an additional hour. Cells were washed twice in PBS and lysed (0.2 N NaOH and 0.2% sodium dodecyl sulfate). Glucose uptake was quantified with a scintillation counter.

cKit(D816H) = molecular target: T7, cKit(D816H) (Homo sapiens, UniProt P10721, D816H); experiment: In vitro kinase activity (Millipore KinaseProfiler): cKit(D816H); type: biochemical; conditions: no head or unit printed
T7 construct: purchased Millipore (KinaseProfiler service)
Protocol: as §1, §2

NEK2 = molecular target: T8, NEK2 (Homo sapiens, UniProt P51955); experiment: In vitro kinase activity (Millipore KinaseProfiler): NEK2; type: biochemical; conditions: no head or unit printed
T8 construct: purchased Millipore (KinaseProfiler service)
Protocol: as §1, §2

DYRK2 = molecular target: T9, DYRK2 (Homo sapiens, UniProt Q92630); experiment: In vitro kinase activity (Millipore KinaseProfiler): DYRK2; type: biochemical; conditions: no head or unit printed
T9 construct: purchased Millipore (KinaseProfiler service)
Protocol: as §1, §2

JNK1α1 = molecular target: T10, JNK1α1 (Homo sapiens, UniProt P45983); experiment: In vitro kinase activity (Millipore KinaseProfiler): JNK1α1; type: biochemical; conditions: no head or unit printed
T10 construct: purchased Millipore (KinaseProfiler service)
Protocol: as §1, §2

T3 sequence (P06241 whole entry, species assumed): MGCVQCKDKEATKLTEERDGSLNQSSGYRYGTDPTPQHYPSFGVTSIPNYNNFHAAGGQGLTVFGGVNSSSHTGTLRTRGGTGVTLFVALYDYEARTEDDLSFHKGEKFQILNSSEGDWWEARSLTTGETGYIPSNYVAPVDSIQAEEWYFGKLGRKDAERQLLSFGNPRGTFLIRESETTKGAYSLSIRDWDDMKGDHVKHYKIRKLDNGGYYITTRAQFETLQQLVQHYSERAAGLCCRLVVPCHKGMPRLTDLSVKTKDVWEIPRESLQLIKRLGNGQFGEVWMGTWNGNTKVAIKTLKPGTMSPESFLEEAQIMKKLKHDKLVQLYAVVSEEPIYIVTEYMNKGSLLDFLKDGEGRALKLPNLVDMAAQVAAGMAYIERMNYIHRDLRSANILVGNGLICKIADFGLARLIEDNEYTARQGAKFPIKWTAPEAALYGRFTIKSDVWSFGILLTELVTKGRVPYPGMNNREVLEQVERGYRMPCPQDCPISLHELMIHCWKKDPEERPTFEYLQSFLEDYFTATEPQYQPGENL
T6 sequence (Q9HCP0 whole entry): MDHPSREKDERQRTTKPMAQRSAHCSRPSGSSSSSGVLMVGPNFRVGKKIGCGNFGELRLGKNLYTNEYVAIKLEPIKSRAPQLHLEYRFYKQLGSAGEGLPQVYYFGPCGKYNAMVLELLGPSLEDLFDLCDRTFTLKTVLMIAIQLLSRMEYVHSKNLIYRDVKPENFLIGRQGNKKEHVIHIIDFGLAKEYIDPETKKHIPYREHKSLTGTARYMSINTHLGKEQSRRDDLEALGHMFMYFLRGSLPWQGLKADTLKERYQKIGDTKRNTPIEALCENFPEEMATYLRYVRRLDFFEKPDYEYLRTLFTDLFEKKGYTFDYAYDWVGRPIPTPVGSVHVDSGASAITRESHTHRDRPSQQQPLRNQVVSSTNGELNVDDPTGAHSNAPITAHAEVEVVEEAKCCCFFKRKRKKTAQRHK
T9 sequence (Q92630 whole entry, species assumed): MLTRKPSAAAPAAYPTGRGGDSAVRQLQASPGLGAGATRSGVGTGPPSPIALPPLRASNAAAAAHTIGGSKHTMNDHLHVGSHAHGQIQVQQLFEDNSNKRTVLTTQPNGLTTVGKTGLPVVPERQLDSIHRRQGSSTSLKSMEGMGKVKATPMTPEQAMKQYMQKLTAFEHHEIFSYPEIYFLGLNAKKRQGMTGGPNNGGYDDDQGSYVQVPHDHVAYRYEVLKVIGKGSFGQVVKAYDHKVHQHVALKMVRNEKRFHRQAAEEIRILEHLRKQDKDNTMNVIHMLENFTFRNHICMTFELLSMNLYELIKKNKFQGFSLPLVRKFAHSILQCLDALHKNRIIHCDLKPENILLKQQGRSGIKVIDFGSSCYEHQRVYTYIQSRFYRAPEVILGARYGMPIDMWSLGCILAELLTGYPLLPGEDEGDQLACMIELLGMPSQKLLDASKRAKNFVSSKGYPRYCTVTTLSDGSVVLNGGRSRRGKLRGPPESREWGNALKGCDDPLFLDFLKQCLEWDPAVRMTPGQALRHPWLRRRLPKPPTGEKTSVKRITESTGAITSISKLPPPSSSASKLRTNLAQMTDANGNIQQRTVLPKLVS
T5 sequence (P53355 whole entry, species assumed): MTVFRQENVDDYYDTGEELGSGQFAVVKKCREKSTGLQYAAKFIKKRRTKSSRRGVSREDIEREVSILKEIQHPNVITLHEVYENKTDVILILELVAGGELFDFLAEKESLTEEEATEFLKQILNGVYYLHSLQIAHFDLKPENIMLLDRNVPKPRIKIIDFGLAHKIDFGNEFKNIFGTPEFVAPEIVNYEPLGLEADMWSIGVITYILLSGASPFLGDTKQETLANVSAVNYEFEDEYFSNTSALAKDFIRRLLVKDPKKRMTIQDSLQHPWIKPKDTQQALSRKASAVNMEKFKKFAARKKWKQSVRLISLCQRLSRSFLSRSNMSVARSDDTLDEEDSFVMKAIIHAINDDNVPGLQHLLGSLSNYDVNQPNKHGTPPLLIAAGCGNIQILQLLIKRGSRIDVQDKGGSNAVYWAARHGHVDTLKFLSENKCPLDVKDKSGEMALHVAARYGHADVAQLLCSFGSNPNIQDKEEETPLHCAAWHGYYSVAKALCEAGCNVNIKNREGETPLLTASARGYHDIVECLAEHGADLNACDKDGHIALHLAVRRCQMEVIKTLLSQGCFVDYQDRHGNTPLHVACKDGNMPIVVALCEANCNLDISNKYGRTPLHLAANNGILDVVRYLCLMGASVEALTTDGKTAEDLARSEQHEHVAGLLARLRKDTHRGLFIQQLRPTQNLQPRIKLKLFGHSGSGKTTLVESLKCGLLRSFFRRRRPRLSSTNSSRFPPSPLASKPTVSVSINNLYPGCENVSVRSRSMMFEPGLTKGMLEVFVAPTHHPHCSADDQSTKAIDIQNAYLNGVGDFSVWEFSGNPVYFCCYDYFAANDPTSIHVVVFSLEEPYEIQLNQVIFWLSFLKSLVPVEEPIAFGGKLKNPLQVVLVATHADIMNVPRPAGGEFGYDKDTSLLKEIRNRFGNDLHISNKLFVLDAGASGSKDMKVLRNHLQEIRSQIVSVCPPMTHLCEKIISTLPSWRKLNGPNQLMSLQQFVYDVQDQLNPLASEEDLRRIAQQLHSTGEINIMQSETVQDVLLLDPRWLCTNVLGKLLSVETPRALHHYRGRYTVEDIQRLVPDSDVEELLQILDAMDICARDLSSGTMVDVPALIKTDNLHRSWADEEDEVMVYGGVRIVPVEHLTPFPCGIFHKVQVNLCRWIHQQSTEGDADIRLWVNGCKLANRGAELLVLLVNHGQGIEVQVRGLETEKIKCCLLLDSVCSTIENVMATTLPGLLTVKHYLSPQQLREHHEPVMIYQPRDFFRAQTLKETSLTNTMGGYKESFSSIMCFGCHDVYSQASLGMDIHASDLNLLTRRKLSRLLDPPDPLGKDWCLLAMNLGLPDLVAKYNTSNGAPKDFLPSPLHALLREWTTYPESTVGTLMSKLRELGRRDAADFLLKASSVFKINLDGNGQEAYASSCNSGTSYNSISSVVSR
T4 sequence (O15530 whole entry): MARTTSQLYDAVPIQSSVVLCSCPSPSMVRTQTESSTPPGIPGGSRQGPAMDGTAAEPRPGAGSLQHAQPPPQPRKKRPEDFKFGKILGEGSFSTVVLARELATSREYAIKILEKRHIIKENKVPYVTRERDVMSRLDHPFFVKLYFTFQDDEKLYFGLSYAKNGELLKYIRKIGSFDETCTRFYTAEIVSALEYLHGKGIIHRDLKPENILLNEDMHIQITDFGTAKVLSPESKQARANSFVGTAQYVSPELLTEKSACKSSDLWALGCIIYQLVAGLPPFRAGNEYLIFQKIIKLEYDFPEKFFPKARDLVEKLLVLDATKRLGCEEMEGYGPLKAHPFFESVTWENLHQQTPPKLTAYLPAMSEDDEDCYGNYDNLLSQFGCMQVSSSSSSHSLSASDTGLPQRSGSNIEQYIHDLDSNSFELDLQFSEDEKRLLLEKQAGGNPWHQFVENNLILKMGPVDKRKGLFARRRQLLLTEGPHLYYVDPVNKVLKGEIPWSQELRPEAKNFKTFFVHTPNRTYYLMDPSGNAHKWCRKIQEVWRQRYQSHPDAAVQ
T10 sequence (P45983 1-384 isoform P45983-2, species assumed): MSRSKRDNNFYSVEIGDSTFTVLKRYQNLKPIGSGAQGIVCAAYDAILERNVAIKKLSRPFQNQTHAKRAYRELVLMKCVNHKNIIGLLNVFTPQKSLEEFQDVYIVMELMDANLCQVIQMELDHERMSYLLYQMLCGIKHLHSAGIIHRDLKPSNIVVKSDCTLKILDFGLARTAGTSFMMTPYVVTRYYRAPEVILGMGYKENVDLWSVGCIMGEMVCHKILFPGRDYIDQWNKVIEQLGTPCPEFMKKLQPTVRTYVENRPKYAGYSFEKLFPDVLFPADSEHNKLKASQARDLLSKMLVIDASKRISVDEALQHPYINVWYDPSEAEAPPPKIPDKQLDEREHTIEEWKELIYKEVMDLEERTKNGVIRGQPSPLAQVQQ
T7 sequence (P10721 26-976 D816H): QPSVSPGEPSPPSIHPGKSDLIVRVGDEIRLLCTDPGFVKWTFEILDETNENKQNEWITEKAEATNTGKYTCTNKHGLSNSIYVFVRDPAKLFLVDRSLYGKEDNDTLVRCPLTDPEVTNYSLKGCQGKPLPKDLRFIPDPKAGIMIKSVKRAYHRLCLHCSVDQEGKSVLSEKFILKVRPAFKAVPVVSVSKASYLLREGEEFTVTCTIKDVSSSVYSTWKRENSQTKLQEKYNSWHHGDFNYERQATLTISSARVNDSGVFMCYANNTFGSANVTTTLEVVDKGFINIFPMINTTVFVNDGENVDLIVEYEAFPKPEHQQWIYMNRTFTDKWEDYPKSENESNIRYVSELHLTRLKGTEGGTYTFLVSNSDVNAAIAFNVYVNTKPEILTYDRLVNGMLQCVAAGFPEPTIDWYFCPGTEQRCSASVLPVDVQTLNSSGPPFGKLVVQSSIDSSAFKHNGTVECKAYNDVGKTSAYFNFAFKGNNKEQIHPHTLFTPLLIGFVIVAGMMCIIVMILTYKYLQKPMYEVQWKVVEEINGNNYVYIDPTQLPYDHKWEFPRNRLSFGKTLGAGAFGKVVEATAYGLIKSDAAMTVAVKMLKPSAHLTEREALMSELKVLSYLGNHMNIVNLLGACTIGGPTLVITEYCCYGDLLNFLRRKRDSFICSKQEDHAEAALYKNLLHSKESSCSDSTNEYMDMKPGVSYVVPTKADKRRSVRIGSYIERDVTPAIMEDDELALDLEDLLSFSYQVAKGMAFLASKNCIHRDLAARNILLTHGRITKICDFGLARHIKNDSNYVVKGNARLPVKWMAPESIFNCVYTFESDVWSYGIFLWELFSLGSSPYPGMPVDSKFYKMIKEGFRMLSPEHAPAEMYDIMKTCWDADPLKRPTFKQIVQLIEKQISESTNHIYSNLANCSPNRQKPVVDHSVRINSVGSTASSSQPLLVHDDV

Structure (SMILES): CC(C)(C)c1ccc(S(=O)(=O)NCc2ccc(C(=O)Nc3cccnc3)cc2)cc1 [Example 38, 4-((4-tert-Butylphenylsulfonamido)methyl)-N-(pyridin-3-yl)benzamide]
- Syk kinase activity (Syk): 94
- total p53 or phospho-p53 levels (DNA damage response) (p53): did not increase
- Hck kinase activity (Hck): 84%
- Fyn kinase activity (Fyn): 91%
- PDK1 kinase activity (PDK1): 105%
- DAPK1 kinase activity (DAPK1): 92%
- CK1γ1 kinase activity (CK1γ1): 85%
- nuclear condensation (apoptosis) (RCC4 and RCC4/VHL cells; DAPI, RCC4 and RCC4/VHL, FIG. 7C): no nuclear condensation
- propidium iodide or annexin V staining (apoptosis) (RCC4 and RCC4/VHL cells; RCC4, 5 μM, FACS, FIG. 7D): nor an increase in either propidium iodide or annexin V staining
- sensitivity of ACHN cells with VHL silenced by shRNA (clonogenic survival) (ACHN shVHL): sensitive
- induction of autophagy (vacuoles, LC3 processing) (LC3): did not induce any morphologic or biochemical features of autophagy
- glucose uptake in VHL-deficient RCC4 cells (RCC4; 3H-2-deoxyglucose, two days of treatment, 5 μM): impaired glucose uptake
- concentration dependence of glucose uptake inhibition in RCC4 (RCC4; increasing concentrations, FIG. 3C): dose-dependent manner
- cKit(D816H) kinase activity (cKit(D816H)): 99
- NEK2 kinase activity (NEK2): 103
- DYRK2 kinase activity (DYRK2): 94%
- JNK1α1 kinase activity (JNK1α1): 101

Reference: patent US20120225862A1, “HETEROARYL BENZAMIDES, COMPOSITIONS AND METHODS OF USE” (AUCKLAND UNIVSERVICES LIMITED, priority 2009, published 2012)
